Measured values reported in US11738002B2, “Methods of treating neurological and psychiatric disorders” (Sunovion Pharmaceuticals Inc., priority 2020, dated 2023).

Assays:
[1] = tested on: female Lister hooded rats; conditions: rat, in vivo
Description: (§1) Experimentally naïve rats were housed individually in plastic cages containing bedding. Housing rooms were maintained under a 12/12-hour light/dark cycle at controlled ambient temperature and relative humidity. Animals were allowed to acclimate to laboratory conditions before the beginning of experiments and had free access to water. Access to food was restricted to facilitate training and maintenance of operant behavior with the exception of training of female rats in the MDMA drug discrimination study. Experiments were conducted in operant chambers (MED Associates, Inc., St. Albans, Vt., U.S.A.) located within sound-attenuating, ventilated cubicles. Each chamber was equipped with a stimulus light, lever(s) located near a food receptacle which was connected to a food pellet dispenser. Chambers used for reinstatement studies were also equipped with a Sonalert® tone generator.
The training substance was administered 15 minutes before the session. […] The percentage of total responses on the training drug-appropriate lever and response rates were calculated for each rat.

[2] = tested on: Female Sprague Dawley Rats; test: withdrawal-induced physical dependence study
Method: Animals were not dosed during the withdrawal phase. Dosing in the morning was staggered such that every animal was observed individually on each day.
Body weights were recorded prior to each dosing session on Day −6 to Day 46 and in the morning during the withdrawal phase. Only body weight recorded prior to the morning dosing session was used for statistical analysis. Food and water intake were measured once daily in the morning from Day −6 to Day 46 just prior to dosing, and in the morning of the withdrawal phase. Body temperatures were measured once daily using a rectal probe from Day −6 to Day 46 just prior to dosing, and, immediately prior to body weight measurement during the withdrawal. A detailed observation checklist was used to record any physical or behavioral signs of pharmacological effect during dosing and of drug dependence in the withdrawal phase. Rats were observed on a workbench in their open topped home cages (in the holding room where they were kept throughout the study) for a 2 min period 1 hr after the morning dose during the baseline and dosing phases and twice daily on Day 46 and during the withdrawal phase. […] For all other endpoints, withdrawal begins on Day 47.

[3] = tested on: male SD rats trained to self-administer heroin; test: self-administration (heroin substitution) test; conditions: Sprague-Dawley, rat, in vivo
Description: as §1

O=C1CC2(CCCC2)CC(=O)N1CCCCN1CCN(c2ncccn2)CC1 [buspirone]
generalization to MDMA [1]: 37.2±20.4%
weak partial generalization to the cue elicited by MDMA [1]: < 50%

CN1C(=O)CN=C(c2ccccc2)c2cc(Cl)ccc21 [diazepam]
weight of the rats vs vehicle at the end of the dosing phase ([2]; 10/15/20 mg/kg p.o. b.i.d. on Days 1-5/6-18/19-46): 5.4%
withdrawal signs on cessation of dosing ([2]; 10/15/20 mg/kg p.o. b.i.d., 46 days): Physical dependence was demonstrated

CC(=O)Oc1ccc2c3c1O[C@H]1[C@@H](OC(C)=O)C=C[C@H]4[C@@H](C2)N(C)CC[C@@]341 [heroin]
mean number of infusions, heroin acquisition session [3]: 19.0±0.4
